From PMC11911254 (Pharmacological Reports, 2025)

Assay: Concentration of paracetamol and its metabolites in plasma, CSF and brain cortex by LC-MS/MS
Details: for concentration at 30 min: Sprague Dawley, rat; for Concentration in plasma / Concentration in brain: individual values if <3 samples
Procedure: Drug injection protocol is illustrated in Fig. 1.
Male and female postnatal P4 pups and 7–8 week-old non-pregnant females were used. […] In combination therapy experiments, this dose was accompanied by one of the 7 other drugs (Table 1). For all experiments, animals were terminally anesthetized 30 min after the drug injection using inhaled isoflurane (IsoFlo 100% w/w, Abbott Laboratories), and blood, CSF, and brain samples were collected. Blood was collected directly from the right cardiac ventricle, CSF from the cisterna magna, and cortical brain samples from the frontal/parietal lobes dorsal to the lateral ventricles as described previously.
Pregnant E19 dams were anesthetized with ip urethane injection (25% w/v urethane, Sigma, 1 ml/100 g body weight) and placed on a 39 °C heating pad in the supine position. An endotracheal catheter was inserted to maintain a clear airway. Catheters were inserted into the femoral vein and artery for iv drug administration and arterial blood sampling respectively. The cannula was flushed with 0.5 ml of heparinized saline (Hospira Inc, 5,000 units/ml) after drug administration and following each arterial blood sample. Following drug administration to the dams, fetuses were exteriorized and serially collected starting at 30 min post-maternal injection. […] At collection, the viability of each fetus was assessed (presence of a heartbeat, the colour of the umbilical vessels) and blood, CSF, and brain samples were taken along with a time-matched maternal blood sample from the femoral artery. At the end of the experiment, a final maternal blood sample was taken directly from the left cardiac ventricle, and CSF and brain samples were collected.
This method has been described previously for valproate, lamotrigine, and olanzapine and was applied in the present study. Simultaneous quantification was performed for all compounds in plasma, brain, and CSF samples following the addition of respective stable isotope-labeled internal standards.
Linear response range was determined in untreated control rat plasma for each compound at 0.1, 1, 10, 50, 100, 200, 400, and 800 µg/ml.

[1] = non-pregnant adult rats, 30 min after ip paracetamol 15 mg/kg + lamotrigine 6 mg/kg (PARA+LTG, n=3), median (IQR)

- concentration at 30 min (both, brain cortex, intraperitoneal, Concentration in brain, P4 rats, 30 min after ip paracetamol 15 mg/kg + cimetidine 11 mg/kg (PARA+CIM, n=4), median (IQR)): 9000 ng/mL
- concentration at 30 min (both, brain cortex, intraperitoneal, Concentration in brain, P4 rats, 30 min after ip paracetamol 15 mg/kg + digoxin 0.03 mg/kg (PARA+DIG, n=4), median (IQR)): 10300 ng/mL
- concentration at 30 min (both, brain cortex, intraperitoneal, Concentration in brain, P4 rats, 30 min after ip paracetamol 15 mg/kg + fluvoxamine 1.5 mg/kg (PARA+FLX, n=4), median (IQR) or individual values): 8700 ng/mL
- concentration at 30 min (both, brain cortex, intraperitoneal, Concentration in brain, P4 rats, 30 min after ip paracetamol 15 mg/kg + lamotrigine 6 mg/kg (PARA+LTG, n=5), median (IQR)): 9900 ng/mL
- concentration at 30 min (both, brain cortex, intraperitoneal, Concentration in brain, P4 rats, 30 min after ip paracetamol 15 mg/kg + lithium 3.2 mg/kg (PARA+Li, n=4), median (IQR)): 7600 ng/mL
- concentration at 30 min (both, brain cortex, intraperitoneal, Concentration in brain, P4 rats, 30 min after ip paracetamol 15 mg/kg + olanzapine 0.15 mg/kg (PARA+OLZ, n=4), median (IQR)): 6900 ng/mL
- concentration at 30 min (both, brain cortex, intraperitoneal, Concentration in brain, P4 rats, 30 min after ip paracetamol 15 mg/kg + valproate 30 mg/kg (PARA+VPA, n=4), median (IQR) or individual values): 5300 ng/mL
- concentration at 30 min (both, brain, CSF, 15 mg/kg, brain and CSF concentrations, monotherapy 15 mg/kg, 30 min, all ages (E19, P4, adult)): 5000 to 10000 ng/mL
- concentration at 30 min (both, plasma, intraperitoneal, 15 mg/kg, Concentration in plasma, P4 rats, 30 min after ip paracetamol 15 mg/kg monotherapy (PARA, n=4), median (IQR)): 5600 ng/mL
- concentration at 30 min (both, plasma, intraperitoneal, Concentration in plasma, P4 rats, 30 min after ip paracetamol 15 mg/kg + cimetidine 11 mg/kg (PARA+CIM, n=4), median (IQR)): 10600 ng/mL
- concentration at 30 min (both, plasma, intraperitoneal, Concentration in plasma, P4 rats, 30 min after ip paracetamol 15 mg/kg + digoxin 0.03 mg/kg (PARA+DIG, n=4), median (IQR)): 8200 ng/mL
- concentration at 30 min (both, plasma, intraperitoneal, Concentration in plasma, P4 rats, 30 min after ip paracetamol 15 mg/kg + fluvoxamine 1.5 mg/kg (PARA+FLX, n=4), median (IQR)): 6500 ng/mL
- concentration at 30 min (both, plasma, intraperitoneal, Concentration in plasma, P4 rats, 30 min after ip paracetamol 15 mg/kg + lamotrigine 6 mg/kg (PARA+LTG, n=5), median (IQR)): 7200 ng/mL
- concentration at 30 min (both, plasma, intraperitoneal, Concentration in plasma, P4 rats, 30 min after ip paracetamol 15 mg/kg + lithium 3.2 mg/kg (PARA+Li, n=4), median (IQR)): 4300 ng/mL
- concentration at 30 min (both, plasma, intraperitoneal, Concentration in plasma, P4 rats, 30 min after ip paracetamol 15 mg/kg + olanzapine 0.15 mg/kg (PARA+OLZ, n=4), median (IQR)): 5600 ng/mL
- concentration at 30 min (both, plasma, intraperitoneal, Concentration in plasma, P4 rats, 30 min after ip paracetamol 15 mg/kg + valproate 30 mg/kg (PARA+VPA, n=4), median (IQR) or individual values): 6700 ng/mL
- concentration at 30 min (both, plasma, intraperitoneal, concentration in plasma, P4, monotherapy and combination therapy with any of the drugs investigated): ~5000 ng/mL
- concentration at 30 min (female, CSF, intraperitoneal, 15 mg/kg, Concentration in CSF, non-pregnant adult rats, 30 min after ip paracetamol 15 mg/kg monotherapy (PARA, n=6), median (IQR)): 5300 ng/mL
- concentration at 30 min (female, CSF, intraperitoneal, Concentration in CSF, non-pregnant adult rats, 30 min after ip paracetamol 15 mg/kg + cimetidine 11 mg/kg (PARA+CIM, n=3), median (IQR)): 2100 ng/mL
- concentration at 30 min (female, CSF, intraperitoneal, Concentration in CSF, non-pregnant adult rats, 30 min after ip paracetamol 15 mg/kg + digoxin 0.03 mg/kg (PARA+DIG, n=3), median (IQR)): 4200 ng/mL
- concentration at 30 min (female, CSF, intraperitoneal, Concentration in CSF, non-pregnant adult rats, 30 min after ip paracetamol 15 mg/kg + fluvoxamine 1.5 mg/kg (PARA+FLX, n=4), median (IQR)): 4400 ng/mL
- concentration at 30 min (female, CSF, intraperitoneal, Concentration in CSF, non-pregnant adult rats, 30 min after ip paracetamol 15 mg/kg + olanzapine 0.15 mg/kg (PARA+OLZ, n=4), median (IQR)): 4200 ng/mL
- concentration at 30 min (female, CSF, intraperitoneal, Concentration in CSF, non-pregnant adult rats, 30 min after ip paracetamol 15 mg/kg + valproate 30 mg/kg (PARA+VPA, n=3), median (IQR)): 4700 ng/mL
- concentration at 30 min (female, brain, intraperitoneal, 15 mg/kg, Concentration in brain, non-pregnant adult rats, 30 min after ip paracetamol 15 mg/kg monotherapy (PARA, n=6), median (IQR)): 8100 ng/mL
- concentration at 30 min (female, brain, intraperitoneal, Concentration in brain, non-pregnant adult rats, 30 min after ip paracetamol 15 mg/kg + cimetidine 11 mg/kg (PARA+CIM, n=3), median (IQR)): 2900 ng/mL
- concentration at 30 min (female, brain, intraperitoneal, Concentration in brain, non-pregnant adult rats, 30 min after ip paracetamol 15 mg/kg + olanzapine 0.15 mg/kg (PARA+OLZ, n=4), median (IQR)): 3900 ng/mL
- concentration at 30 min (female, brain, intraperitoneal, Concentration in brain, non-pregnant adult rats, 30 min after ip paracetamol 15 mg/kg + valproate 30 mg/kg (PARA+VPA, n=3), median (IQR)): 7500 ng/mL
- concentration at 30 min (female, plasma, intraperitoneal, 15 mg/kg, Concentration in plasma, non-pregnant adult rats, 30 min after ip paracetamol 15 mg/kg monotherapy (PARA, n=6), median (IQR)): 8400 ng/mL
- concentration at 30 min (female, plasma, intraperitoneal, Concentration in plasma, non-pregnant adult rats, 30 min after ip paracetamol 15 mg/kg + digoxin 0.03 mg/kg (PARA+DIG, n=3), median (IQR)): 4400 ng/mL
- concentration at 30 min (female, plasma, intraperitoneal, Concentration in plasma, non-pregnant adult rats, 30 min after ip paracetamol 15 mg/kg + fluvoxamine 1.5 mg/kg (PARA+FLX, n=4), median (IQR)): 4600 ng/mL
- concentration at 30 min (female, plasma, intraperitoneal, Concentration in plasma, non-pregnant adult rats, 30 min after ip paracetamol 15 mg/kg + olanzapine 0.15 mg/kg (PARA+OLZ, n=4), median (IQR)): 6700 ng/mL
- Concentration in plasma (non-pregnant adult rats, 30 min after ip paracetamol 15 mg/kg + cimetidine 11 mg/kg (PARA+CIM, n=3), median (IQR)): 3.4 (1.0) µg/ml
- Concentration in brain (non-pregnant adult rats, 30 min after ip paracetamol 15 mg/kg + digoxin 0.03 mg/kg (PARA+DIG, n=3), median (IQR)): 4.3 (1.6) µg/ml
- Concentration in brain [1]: 7.1 (0.7) µg/ml
- Concentration in plasma [1]: 7.5 (1.0) µg/ml
- Concentration in plasma (non-pregnant adult rats, 30 min after ip paracetamol 15 mg/kg + valproate 30 mg/kg (PARA+VPA, n=3), median (IQR)): 7.5 (1.3) µg/ml
Compound: CC(=O)Nc1ccc(O)cc1 [Paracetamol, reference compound]
